From patent publication US20090202518A1, “Treatment of sepsis and inflammation with alpha2A Adrenergic antagonists” (The Feinstein Institute of Medical Research, priority 2005, published 2009)
Entries after “also recorded” stand apart in the source; their conditions may differ.

Columns and labels:
Kupffer cells (KCs) = test: TNF-α release from cultured Kupffer cells; format: cell-based
From the text: The nervous system regulates the inflammatory response in real time. Our previous studies have shown that the sympathetic neurotransmitter, norepinephrine (NE), increases TNF-α release via activation of α2A-adrenoceptor (α2A-AR) on Kupffer cells (KCs). In cultured KCs, NE increases the release of TNF-α by 3.4-fold and a specific antagonist for α2A-AR, BRL-44408 maleate, reduces TNF-α secretion by 51%. However, it remains unknown whether in vivo administration of α2A-AR antagonists in sepsis is beneficial.

[1] = system: male rats with sepsis induced by cecal ligation and puncture (CLP); test: Cecal ligation and puncture (CLP) model of sepsis in rats; format: in vivo, rat
Protocol: Sepsis was induced in male rats by cecal ligation and puncture (CLP). The CLP model of sepsis has been used extensively as a reliable model of the pathophysiologic and immunologic alterations in human sepsis.
BRL-44408 maleate (2.5 mg/kg BW) was administered intravenously at the time of CLP. Twenty hours after CLP, the rats were sacrificed and blood and liver samples were collected. Serum levels of TNF-α, liver enzymes (i.e., AST and ALT), lactate and creatinine were measured. Gene expression of TNF-α in the liver was analyzed. In additional groups of animals, the necrotic cecum was excised at 20 h post-CLP and the 10-day survival was recorded.

[2] = 2.5 mg/kg BW intravenously at the time of CLP, 20 h after CLP, means±SE, n = 6/group

Row | Compound | reduction of TNF-α secretion (Kupffer cells (KCs)) [%] | ALT (serum level) [1, 2] [IU/L] | AST (serum level) [1, 2] [IU/L] | Creatinine (serum level) [1, 2] [mg/dL] | Lactate (serum level) [1, 2] [mg/dL] | TNF-α (serum level) [1, 2] [pg/mL] | TNF-α/G3PDH (mRNA) ([1]; liver gene expression, 2.5 mg/kg BW intravenously at the time of CLP, 20 h after CLP, means±SE, n = 6/group) | 10-day survival / mortality ([1]; necrotic cecum excised at 20 h post-CLP, FIG. 1) | increase of the release of TNF-α (Kupffer cells (KCs)) [fold]
1 | CC1c2ccccc2CN1CC1=NCCN1.O=C(O)/C=C\C(=O)O (stereo not drawn) [BRL-44408 maleate] | 51 | 20.5 ± 4.5 | 20.9 ± 5.3 | 1.1 ± 0.2 | 20.6 ± 1.9 | 91.8 ± 8.1 | 0.5 ± 0.1 | increased survival; also recorded: reduced mortality | –
2 | NC[C@H](O)c1ccc(O)c(O)c1 [NE, norepinephrine] | – | – | – | – | – | – | – | – | 3.4
